Reference: paper PMC9234961 (Journal of Medicinal Chemistry, 2022)
Where two headings read alike, the source gives them in different places.

Assays:
kinases (468) [1] = target: kinases (468) (Homo sapiens, UniProt Q8NEV4); conditions: MYO3A; 1000 nM
kinases (468) [2] = target: kinases (468) (Homo sapiens, UniProt Q9NYY3); conditions: PLK2; 1000 nM
kinases (468) [3] = target: kinases (468) (Homo sapiens, UniProt P36888, N841I); conditions: FLT3(N841I); 1000 nM
kinases (468) [4] = target: kinases (468) (Homo sapiens, UniProt P57078); conditions: kinase RIPK4 (Entrez RIPK4); compound concentration 1000 nM
kinases (468) [5] = target: kinases (468) (Homo sapiens, UniProt P78362); conditions: kinase SRPK2 (Entrez SRPK2); compound concentration 1000 nM
kinases (468) [6] = target: kinases (468) (Homo sapiens, UniProt Q9UKI8); conditions: kinase TLK1 (Entrez TLK1); compound concentration 1000 nM
kinases (468) [7] = target: kinases (468) (Homo sapiens, UniProt Q9UK32); conditions: compound concentration 1000 nM
Sequence of kinases (468) (Homo sapiens, UniProt Q9UK32) (Q9UK32 whole entry): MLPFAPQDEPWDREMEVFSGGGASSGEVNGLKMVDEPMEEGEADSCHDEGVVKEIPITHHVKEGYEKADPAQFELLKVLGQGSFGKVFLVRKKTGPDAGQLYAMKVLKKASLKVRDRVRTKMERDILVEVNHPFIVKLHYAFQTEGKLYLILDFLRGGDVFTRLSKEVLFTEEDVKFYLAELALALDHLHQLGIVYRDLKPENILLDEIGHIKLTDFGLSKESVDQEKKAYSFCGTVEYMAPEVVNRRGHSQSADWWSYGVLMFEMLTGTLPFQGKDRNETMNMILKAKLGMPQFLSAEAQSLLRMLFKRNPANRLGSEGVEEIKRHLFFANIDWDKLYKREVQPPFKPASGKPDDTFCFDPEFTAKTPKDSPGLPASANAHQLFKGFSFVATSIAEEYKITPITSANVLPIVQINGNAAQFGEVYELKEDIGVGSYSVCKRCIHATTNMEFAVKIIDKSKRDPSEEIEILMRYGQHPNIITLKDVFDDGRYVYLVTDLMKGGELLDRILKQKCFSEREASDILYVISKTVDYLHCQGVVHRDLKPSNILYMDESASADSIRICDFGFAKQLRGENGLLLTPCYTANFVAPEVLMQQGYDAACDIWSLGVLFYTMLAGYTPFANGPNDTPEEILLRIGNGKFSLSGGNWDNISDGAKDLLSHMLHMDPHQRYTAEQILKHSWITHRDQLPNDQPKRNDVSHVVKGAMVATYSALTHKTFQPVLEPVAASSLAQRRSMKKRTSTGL

kinases (468) [8] = target: kinases (468) (Homo sapiens, UniProt P42336, E545A); conditions: PIK3CA(E545A); 1000 nM
kinases (468) [9] = target: kinases (468) (Homo sapiens, UniProt Q16816); conditions: PHKG1; 1000 nM
Sequence of kinases (468) (Homo sapiens, UniProt Q16816) (Q16816 whole entry): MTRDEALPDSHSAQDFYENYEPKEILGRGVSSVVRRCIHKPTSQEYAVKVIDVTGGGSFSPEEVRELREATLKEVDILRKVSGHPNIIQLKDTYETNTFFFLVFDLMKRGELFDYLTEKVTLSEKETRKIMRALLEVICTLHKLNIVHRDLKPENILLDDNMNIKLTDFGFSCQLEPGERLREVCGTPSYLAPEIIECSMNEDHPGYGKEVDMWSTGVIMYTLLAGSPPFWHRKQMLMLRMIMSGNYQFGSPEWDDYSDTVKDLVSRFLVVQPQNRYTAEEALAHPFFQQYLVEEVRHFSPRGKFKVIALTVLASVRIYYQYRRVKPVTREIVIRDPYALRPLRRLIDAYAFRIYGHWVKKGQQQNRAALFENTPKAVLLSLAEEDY

kinases (468) [10] = target: kinases (468) (Homo sapiens, UniProt P00533, L858R/T790M); conditions: EGFR(L858R,T790M); 1000 nM
kinases (468) [11] = target: kinases (468) (Homo sapiens, UniProt Q96SB4); conditions: kinase SRPK1 (Entrez SRPK1); compound concentration 1000 nM
kinases (468) [12] = target: kinases (468) (Homo sapiens, UniProt P17948); conditions: FLT1; 1000 nM
kinases (468) [13] = target: kinases (468) (Homo sapiens, UniProt P54764); conditions: EPHA4; 1000 nM
kinases (468) [14] = target: kinases (468) (Homo sapiens, UniProt Q9Y5S2); conditions: MRCKB (CDC42BPB); 1000 nM
Sequence of kinases (468) (Homo sapiens, UniProt Q9Y5S2) (Q9Y5S2 whole entry): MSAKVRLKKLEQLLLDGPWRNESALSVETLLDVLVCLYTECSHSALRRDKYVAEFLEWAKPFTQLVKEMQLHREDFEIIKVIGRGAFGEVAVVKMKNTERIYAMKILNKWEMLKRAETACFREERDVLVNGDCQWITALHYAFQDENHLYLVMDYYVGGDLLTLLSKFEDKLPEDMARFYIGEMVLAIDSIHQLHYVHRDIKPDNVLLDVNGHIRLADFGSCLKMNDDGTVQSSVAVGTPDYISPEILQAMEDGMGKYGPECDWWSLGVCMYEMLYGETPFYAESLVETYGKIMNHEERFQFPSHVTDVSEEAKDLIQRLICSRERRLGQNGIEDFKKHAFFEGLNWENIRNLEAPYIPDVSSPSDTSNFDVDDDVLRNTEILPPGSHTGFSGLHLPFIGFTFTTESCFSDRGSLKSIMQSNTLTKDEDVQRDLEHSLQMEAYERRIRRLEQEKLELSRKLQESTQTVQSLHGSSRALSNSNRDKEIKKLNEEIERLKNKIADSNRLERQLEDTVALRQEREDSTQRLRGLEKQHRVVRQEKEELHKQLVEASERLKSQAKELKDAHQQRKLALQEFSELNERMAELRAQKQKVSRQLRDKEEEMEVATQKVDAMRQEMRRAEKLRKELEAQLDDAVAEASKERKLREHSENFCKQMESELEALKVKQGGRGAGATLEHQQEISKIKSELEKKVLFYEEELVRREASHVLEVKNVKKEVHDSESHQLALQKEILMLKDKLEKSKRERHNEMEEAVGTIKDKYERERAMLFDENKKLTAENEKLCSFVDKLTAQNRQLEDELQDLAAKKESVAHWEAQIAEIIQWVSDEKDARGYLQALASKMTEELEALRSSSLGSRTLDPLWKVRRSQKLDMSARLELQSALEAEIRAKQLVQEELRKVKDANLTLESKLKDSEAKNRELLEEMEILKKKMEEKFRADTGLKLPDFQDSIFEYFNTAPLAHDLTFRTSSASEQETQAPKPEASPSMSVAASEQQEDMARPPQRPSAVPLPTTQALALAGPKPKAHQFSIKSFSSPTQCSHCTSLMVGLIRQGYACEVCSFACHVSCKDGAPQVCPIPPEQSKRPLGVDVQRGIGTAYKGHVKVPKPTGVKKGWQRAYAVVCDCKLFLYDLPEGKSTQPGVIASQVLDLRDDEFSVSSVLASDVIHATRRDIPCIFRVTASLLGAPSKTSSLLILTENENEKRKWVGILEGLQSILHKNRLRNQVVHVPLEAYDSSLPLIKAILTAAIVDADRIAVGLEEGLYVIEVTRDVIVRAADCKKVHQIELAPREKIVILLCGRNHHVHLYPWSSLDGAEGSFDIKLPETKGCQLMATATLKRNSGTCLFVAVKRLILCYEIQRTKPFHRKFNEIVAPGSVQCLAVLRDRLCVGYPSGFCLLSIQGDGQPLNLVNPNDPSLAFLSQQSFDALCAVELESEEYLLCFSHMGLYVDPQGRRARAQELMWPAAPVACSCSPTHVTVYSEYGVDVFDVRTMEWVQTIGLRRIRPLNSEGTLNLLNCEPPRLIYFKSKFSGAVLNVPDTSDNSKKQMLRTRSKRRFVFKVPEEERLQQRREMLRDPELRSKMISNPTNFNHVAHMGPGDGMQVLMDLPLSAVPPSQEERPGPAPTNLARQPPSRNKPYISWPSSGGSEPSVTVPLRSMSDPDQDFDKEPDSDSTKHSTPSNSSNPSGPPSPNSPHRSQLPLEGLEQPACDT

kinases (468) [15] = target: kinases (468) (Homo sapiens, UniProt Q14680); conditions: MELK; 1000 nM
kinases (468) [16] = target: kinases (468) (Homo sapiens, UniProt Q16584); conditions: MLK3 (MAP3K11); 1000 nM
kinases (468) [17] = target: kinases (468) (Homo sapiens, UniProt O14757); conditions: CHEK1; 1000 nM
kinases (468) [18] = target: kinases (468) (Homo sapiens, UniProt Q99683); conditions: ASK1 (MAP3K5); 1000 nM
kinases (468) [19] = target: kinases (468) (Homo sapiens, UniProt P06241); conditions: FYN; 1000 nM
kinases (468) [20] = target: kinases (468) (Homo sapiens, UniProt P16234); conditions: PDGFRA; 1000 nM
kinases (468) [21] = target: kinases (468) (Homo sapiens, UniProt P31751); conditions: AKT2; 1000 nM
kinases (468) [22] = target: kinases (468) (Homo sapiens, UniProt Q9HC98); conditions: NEK6; 1000 nM
Sequence of kinases (468) (Homo sapiens, UniProt Q9HC98) (Q9HC98 whole entry): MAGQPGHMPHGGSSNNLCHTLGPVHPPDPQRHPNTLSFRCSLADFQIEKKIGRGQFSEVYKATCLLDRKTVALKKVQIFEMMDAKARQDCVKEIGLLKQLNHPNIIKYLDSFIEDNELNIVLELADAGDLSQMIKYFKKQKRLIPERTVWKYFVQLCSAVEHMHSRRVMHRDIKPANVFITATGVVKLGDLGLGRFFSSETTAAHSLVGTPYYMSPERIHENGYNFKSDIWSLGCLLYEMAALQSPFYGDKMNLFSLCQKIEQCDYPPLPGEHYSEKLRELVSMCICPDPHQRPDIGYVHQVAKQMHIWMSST

kinases (468) [23] = target: kinases (468) (Homo sapiens, UniProt Q9BYT3); conditions: kinase STK33 (Entrez STK33); compound concentration 1000 nM
kinases (468) [24] = target: kinases (468) (Homo sapiens, UniProt Q13233); conditions: MAP3K1; 1000 nM
kinases (468) [25] = target: kinases (468) (Homo sapiens, UniProt Q86V86); conditions: PIM3; 1000 nM
kinases (468) [26] = target: kinases (468) (Homo sapiens, UniProt Q9C098); conditions: DCAMKL3 (DCLK3); 1000 nM
kinases (468) [27] = target: kinases (468) (Homo sapiens, UniProt P21709); conditions: EPHA1; 1000 nM
kinases (468) [28] = target: kinases (468) (Homo sapiens, UniProt Q8WTQ7); conditions: GRK7; 1000 nM
kinases (468) [29] = target: kinases (468) (Homo sapiens, UniProt Q59H18); conditions: kinase TNNI3K (Entrez TNNI3K); compound concentration 1000 nM
Sequence of kinases (468) (Homo sapiens, UniProt Q59H18) (Q59H18 whole entry): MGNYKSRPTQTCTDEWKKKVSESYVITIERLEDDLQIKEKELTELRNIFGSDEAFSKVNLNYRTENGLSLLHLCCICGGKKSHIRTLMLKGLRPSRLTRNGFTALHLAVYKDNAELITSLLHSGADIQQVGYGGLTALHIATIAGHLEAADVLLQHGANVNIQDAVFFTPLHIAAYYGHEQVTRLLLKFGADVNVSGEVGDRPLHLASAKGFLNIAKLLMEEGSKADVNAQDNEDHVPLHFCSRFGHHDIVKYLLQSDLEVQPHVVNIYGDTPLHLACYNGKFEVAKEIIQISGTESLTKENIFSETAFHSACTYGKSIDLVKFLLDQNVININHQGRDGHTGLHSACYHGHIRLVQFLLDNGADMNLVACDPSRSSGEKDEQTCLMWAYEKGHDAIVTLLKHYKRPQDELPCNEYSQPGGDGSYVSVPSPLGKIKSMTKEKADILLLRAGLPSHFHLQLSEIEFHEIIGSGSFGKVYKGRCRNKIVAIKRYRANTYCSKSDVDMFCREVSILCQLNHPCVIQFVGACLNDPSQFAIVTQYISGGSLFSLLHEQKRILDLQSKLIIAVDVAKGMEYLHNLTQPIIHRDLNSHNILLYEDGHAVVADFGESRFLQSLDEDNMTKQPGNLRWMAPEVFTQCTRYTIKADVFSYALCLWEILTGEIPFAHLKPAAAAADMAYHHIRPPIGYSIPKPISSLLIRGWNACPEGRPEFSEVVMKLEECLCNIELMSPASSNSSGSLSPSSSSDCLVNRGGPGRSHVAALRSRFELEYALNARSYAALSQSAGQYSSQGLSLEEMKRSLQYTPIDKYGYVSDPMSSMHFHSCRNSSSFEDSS

kinases (468) [30] = target: kinases (468) (Homo sapiens, UniProt Q9Y6M4); conditions: CSNK1G3; 1000 nM
kinases (468) [31] = target: kinases (468) (Homo sapiens, UniProt Q8N568); conditions: DCAMKL2 (DCLK2); 1000 nM
kinases (468) [32] = target: kinases (468) (Homo sapiens, UniProt P11802); conditions: 1000 nM
Sequence of kinases (468) (Homo sapiens, UniProt P11802) (P11802 whole entry): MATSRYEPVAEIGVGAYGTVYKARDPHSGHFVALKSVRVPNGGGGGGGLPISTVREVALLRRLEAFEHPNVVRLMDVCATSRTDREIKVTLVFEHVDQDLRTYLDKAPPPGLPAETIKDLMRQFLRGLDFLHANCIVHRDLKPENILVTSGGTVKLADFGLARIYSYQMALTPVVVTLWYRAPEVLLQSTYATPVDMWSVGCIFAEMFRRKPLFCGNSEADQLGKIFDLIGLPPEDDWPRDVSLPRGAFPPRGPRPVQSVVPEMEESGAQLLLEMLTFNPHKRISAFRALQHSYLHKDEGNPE

kinases (468) [33] = target: kinases (468) (Homo sapiens, UniProt Q9UQ88); conditions: CDC2L2; 1000 nM
Sequence of kinases (468) (Homo sapiens, UniProt Q9UQ88) (Q9UQ88 whole entry): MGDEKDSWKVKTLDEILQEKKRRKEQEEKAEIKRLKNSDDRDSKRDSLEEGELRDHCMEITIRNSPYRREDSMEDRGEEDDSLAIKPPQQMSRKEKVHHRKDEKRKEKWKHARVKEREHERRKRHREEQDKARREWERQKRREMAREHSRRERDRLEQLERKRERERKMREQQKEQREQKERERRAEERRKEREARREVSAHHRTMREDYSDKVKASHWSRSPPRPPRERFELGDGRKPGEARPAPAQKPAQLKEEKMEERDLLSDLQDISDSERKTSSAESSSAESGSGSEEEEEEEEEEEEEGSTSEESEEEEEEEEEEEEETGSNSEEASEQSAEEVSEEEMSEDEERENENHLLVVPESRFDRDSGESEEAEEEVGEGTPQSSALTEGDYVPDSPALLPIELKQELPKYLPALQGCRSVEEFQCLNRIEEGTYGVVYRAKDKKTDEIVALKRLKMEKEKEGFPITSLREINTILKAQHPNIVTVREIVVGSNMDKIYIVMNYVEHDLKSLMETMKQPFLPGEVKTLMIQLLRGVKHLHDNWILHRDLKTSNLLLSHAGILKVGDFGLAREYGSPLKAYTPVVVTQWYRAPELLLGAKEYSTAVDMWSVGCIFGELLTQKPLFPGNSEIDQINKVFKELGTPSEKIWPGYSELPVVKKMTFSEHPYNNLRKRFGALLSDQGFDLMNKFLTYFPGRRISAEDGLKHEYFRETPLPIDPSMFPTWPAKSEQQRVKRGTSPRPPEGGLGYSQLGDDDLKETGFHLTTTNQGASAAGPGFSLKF

kinases (468) [34] = target: kinases (468) (Homo sapiens, UniProt P78368); conditions: CSNK1G2; 1000 nM

Measured: Percent Control

C[C@H]1C[C@@H](O)CN(c2ncc(Cl)c(Nc3ccc4c(c3)c3c(c(=O)n4C)OCC(F)(F)[C@H](C4CC4)N3)n2)C1 [CCT373566_9A]
99%: kinases (468) [34]
95%: kinases (468) [20] | kinases (468) [32]; CDK4-cyclinD3
96%: kinases (468) [28]
90%: kinases (468) [7]; kinase RSK4(Kin.Dom.1-N-terminal) (Entrez RPS6KA6)
87%: kinases (468) [2] | kinases (468) [6]
100%: kinases (468) [1] | kinases (468) [4] | kinases (468) [5] | kinases (468) [8] | kinases (468) [12] | kinases (468) [13] | kinases (468) [14] | kinases (468) [15] | kinases (468) [16] | kinases (468) [17] | kinases (468) [18] | kinases (468) [19] | kinases (468) [21] | kinases (468) [22] | kinases (468) [23] | kinases (468) [25] | kinases (468) [26] | kinases (468) [27] | kinases (468) [29] | kinases (468) [30] | kinases (468) [31] | kinases (468) [32]; CDK4
88%: kinases (468) [7]; kinase RSK4(Kin.Dom.2-C-terminal) (Entrez RPS6KA6)
93%: kinases (468) [24]
83%: kinases (468) [11]
97%: kinases (468) [9] | kinases (468) [33]
94%: kinases (468) [3] | kinases (468) [32]; CDK4-cyclinD1
81%: kinases (468) [10]
